Columns and labels:
[1] = tested on: patients with Ménière's disease; assay: Randomized, double blind, placebo-controlled cross-over clinical trial: tinnitus loudness after intratympanic injection; assay type: in vivo, human; settings: for Effect on tinnitus loudness: intratympanic injection; for Reduction of tinnitus loudness in decibels, Day 5: Day 5 after initiation; for Reduction of tinnitus loudness in decibels, Day 5 / Reduction of tinnitus loudness in decibels, Day 15 / Reduction of tinnitus loudness in decibels, Day 29: intratympanic once daily for 3 days, vs placebo, baseline-corrected, mean ± SEM, lithium salt 450 μg/ml, isopropyl ester 50 μg/ml; for Reduction of tinnitus loudness in decibels, Day 15: Day 15 after initiation; for Reduction of tinnitus loudness in decibels, Day 29: Day 29 after initiation
Description: The invention is exemplified by the following non-limiting example based on a recently performed clinical trial: Patients suffering from unilateral Ménière's disease were enrolled in a randomized, double blind, placebo-controlled clinical trial. The study followed a cross-over protocol. The patients received an intratympanic injection (injection into the middle ear cavity) of latanoprost lithium salt or placebo once daily during the three first days of each treatment period. The effect on hearing and tinnitus loudness was measured on Days 5, 15 and 29. Thereafter there was a treatment-free cross-over period of 2 months. After the cross-over period the patient entered the second treatment period and latanoprost lithium salt or placebo was again administered by intratympanic injection once daily during the three first days, and the same measurements of hearing and tinnitus were repeated. Latanoprost lithium salt was tested at 50 μg/ml, 150 μg/ml and 450 μg/ml concentration, and in addition one group of patients received latanoprost (isopropyl ester) at 50 μg/ml concentration according to the same cross-over study protocol.

[2] = Lipophilicity comparison; assay type: physicochemical; settings: ratio isopropyl ester / lithium salt
Description: Although the concentration of latanoprost lithium salt was 9 times higher than the concentration of latanoprost (isopropyl ester) we believe that the main additional effect (compared with latanoprost) is based on the lithium salt because the lipophilicity of latanoprost (isopropyl ester) is more than 1000 times higher than the lipophilicity of the latanoprost lithium salt. Consequently the ester can be expected to traverse biological membranes such as the round window membrane much better than the water-soluble salt. […] The concentration of 450 μg/ml of latanoprost lithium salt corresponds to approximately 1 mM lithium, i.e. a concentration within the therapeutic range of lithium. The lower concentrations 150 μg/ml and 50 μg/ml of latanoprost lithium salt had no effect which can be anticipated if the effect on tinnitus loudness at least partly is based on the pharmacological effect of lithium since the two lower concentrations are below the therapeutic concentration range of lithium.

[3] = tested on: patients suffering from Ménière's disease; settings: cited from earlier work
[4] = man; lower ineffective, above 1.5 mM side effects may arise; cited from earlier work

| SMILES | Effect on tinnitus loudness ([1]; 50 μg/ml) | Effect on tinnitus loudness ([1]; 150 μg/ml) | Reduction of tinnitus loudness in decibels, Day 5 [1] [decibels] | Reduction of tinnitus loudness in decibels, Day 15 [1] [decibels] | Reduction of tinnitus loudness in decibels, Day 29 [1] [decibels] | Lipophilicity relative to latanoprost lithium salt [2] | Effect on hearing [3] | Effect on vertigo [3] | Effect on tinnitus ([3]; intratympanic injection) | Therapeutic plasma concentration [4] [mM] |
| --- | --- | --- | --- | --- | --- | --- | --- | --- | --- | --- |
| O=C([O-])CCC/C=C\C[C@@H]1[C@@H](CC[C@@H](O)CCc2ccccc2)[C@H](O)C[C@@H]1O.[Li+] [Latanoprost acid lithium salt, latanoprost acid lithium salt] | no effect | no effect | −10.8 ± 3.5 | −15.4 ± 6.4 | −10.5 ± 3.9 |  |  |  |  |  |
| CC(C)OC(=O)CCC/C=C\C[C@@H]1[C@@H](CC[C@@H](O)CCc2ccccc2)[C@H](O)C[C@@H]1O [Latanoprost isopropyl ester, latanoprost] |  |  | −5.5 ± 2.7 | −9.5 ± 5.8 | −9.6 ± 4.6 | more than 1000 times | improved hearing | reduced vertigo | may reduce tinnitus |  |
| [Li] [Lithium, lithium] |  |  |  |  |  |  |  |  |  | 0.5 to 1.5 |

Source: patent US20070219272A1, “Novel method and compositions for treatment of tinnitus” (priority 2006, published 2007)
